From patent publication US20240293563A1, “GLP-1 RECEPTOR LIGAND MOIETY CONJUGATED OLIGONUCLEOTIDES AND USES THEREOF” (priority 2017, published 2024)
pIC50: −log10 of the molar value. Square brackets hold non-standard residues; d marks the D form. Side chains are listed from the residue outwards. Ends that are not written are not given here. 5'‑hexylamino oligonucleotide ISIS 786434 = not defined here; Aib = CC(C)(N)C(=O)O; Mpa = O=C(O)CCS

Legend:
MALAT1 [1] = assay: MALAT1 inhibition in isolated islets 72 hrs after single s.c. dose, various linkers; type: in vivo, mouse
MALAT1 [2] = assay: In situ hybridization of MALAT1 (QuantiGene ViewRNA) in mouse tissues after intravenous ASO; type: in vivo
Text: NO: 63) or a GLP-1 conjugated MALAT1 ASO (ISIS 816385) described in Example 1 at concentrations of 1.8. 0.6, or 0.2 μmol/kg. […] MALAT1 expression was detected using the QuantiGene ViewRNA tissue assay (Affymetrix, cat. No. QVT0011). Species-specific MALAT1 probes were purchased from Affymetrix (cat. No. VB-11110-01/mouse; VF1-13963/monkey). In brief, mouse tissues were fixed in 10% neutral-buffered formalin and embedded into paraffin and sectioned into […]. After deparaffinization, the tissue slides were boiled in Affymetrix pretreatment solution for 10-30 minutes followed by treatment with protease at 40° C. for 10 to 40 minutes depending on tissue. The MALAT1 RNA probe was used at a 1:40 dilution and was incubated with sample at 40° C. for 120 minutes. After washing, the MALAT1 RNA/probe complex was hybridized with preamplifier, amplifier, and AP-oligonucleotides at 40° C. for 25, 15, and 15 minutes, respectively. After removal of free AP oligonucleotide by washing in PBS, the slide was incubated with Fast Red substrate at room temperature for 30 minutes. The tissue images were acquired using an Aperio scanner. Hung et al., 2013 Nuc Acid Ther. 369-78. To determine a dose response of a GLP-1 conjugated MALAT1 ASO (ISIS 816385) described in Example 1 on pancreatic MALAT1 expression, male C57BL/6 mice fed a chow diet received a single intravenous injection of ISIS 816385 or an unconjugated MALAT1 ASO (ISIS 556089) described above at concentrations of 0.2, 0.06, and 0.02 μmol/kg. MALAT1 expression was detected using the QuantiGene ViewRNA tissue assay described above.

MALAT1 [3] = assay: Effect of peptide composition and attachment point on peptide-conjugated ASO activity in LVX-GLP1R cells; type: cell-based, human; settings: 7 doses in a 4-fold dilution series, MALAT1 RNA
[4] = Food intake of mice after single subcutaneous injection of GLP-1 conjugated ASO; type: in vivo, mouse
Procedure: Groups of eight mice were administered a single subcutaneous injection of 0.01, 0.03, or 0.1 μmol/kg of ION 816385 (GLP-1 conjugated MALAT-1 ASO conjugated via a disulfide linker) or 0.1 μmol/kg ION 1123118 (GLP-1 conjugated MALAT-1 ASO conjugated via a maleimide acid linker), as indicated in the table below, and food intake was measured for 24 hours. Food intake of eight mice administered a subcutaneous injection of PBS was monitored as a control.

Substance: ISIS 816385 (H[Aib]EGTFTSDVSSYLEEQAAKEFIAWLVKGGPSSGAPPPSC([Mpa-5'‑hexylamino oligonucleotide ISIS 786434])-NH2; reading uncertain; also: Cys40 joined to the linker by a disulfide)
- In vivo ED50 (MALAT1 [1]; MALAT1 in isolated islets, single subcutaneous injection): 0.0088 µmol/kg
- % MALAT1 inhibition (MALAT1 [1]; isolated islets, female C57BL/6Crl mice, single subcutaneous injection of 0.01 μmol/kg): 41%
- effect in liver (MALAT1 in situ hybridization) (MALAT1 [2]; Study 2, single intravenous injection, any of the doses 0.2, 0.06, 0.02 μmol/kg): No observable effect
- MALAT1 staining in beta islet cells of the pancreas (in situ hybridization) (MALAT1 [2]; Study 2, single intravenous injection, at the 0.2 μmol/kg dose and 0.06 μmol/kg dose): reduced MALAT1 staining
- MALAT1 expression in pancreatic beta islet cells (in situ hybridization) (MALAT1 [2]; male C57BL/6 mice, 2 intravenous injections of 1.8, 0.6 or 0.2 μmol/kg, 72 hours after final injection): reduced MALAT1 expression
- pIC50 (MALAT1 [3]): 6.46
- Cumulative Food Intake ([4]; 0.01 μmol/kg single s.c., Time 1 h): 0.10 g
- Cumulative Food Intake ([4]; 0.01 μmol/kg single s.c., Time 2 h): 0.25 g
- Cumulative Food Intake ([4]; 0.01 μmol/kg single s.c., Time 3 h): 0.40 g
- Cumulative Food Intake ([4]; 0.01 μmol/kg single s.c., Time 4 h): 0.56 g
- Cumulative Food Intake ([4]; 0.01 μmol/kg single s.c., Time 5 h): 0.71 g
- Cumulative Food Intake ([4]; 0.01 μmol/kg single s.c., Time 6 h): 0.86 g
- Cumulative Food Intake ([4]; 0.01 μmol/kg single s.c., Time 7 h): 1.09 g
- Cumulative Food Intake ([4]; 0.01 μmol/kg single s.c., Time 8 h): 1.23 g
- Cumulative Food Intake ([4]; 0.01 μmol/kg single s.c., Time 9 h): 1.34 g
- Cumulative Food Intake ([4]; 0.01 μmol/kg single s.c., Time 10 h): 1.47 g
- Cumulative Food Intake ([4]; 0.01 μmol/kg single s.c., Time 11 h): 1.61 g
- Cumulative Food Intake ([4]; 0.01 μmol/kg single s.c., Time 12 h): 1.81 g
- Cumulative Food Intake ([4]; 0.01 μmol/kg single s.c., Time 13 h): 1.97 g
- Cumulative Food Intake ([4]; 0.01 μmol/kg single s.c., Time 14 h): 2.22 g
- Cumulative Food Intake ([4]; 0.01 μmol/kg single s.c., Time 15 h): 2.26 g
- Cumulative Food Intake ([4]; 0.01 μmol/kg single s.c., Time 16 h): 2.31 g
- Cumulative Food Intake ([4]; 0.01 μmol/kg single s.c., Time 17 h): 2.57 g
- Cumulative Food Intake ([4]; 0.01 μmol/kg single s.c., Time 18 h): 2.57 g
- Cumulative Food Intake ([4]; 0.01 μmol/kg single s.c., Time 19 h): 2.58 g
- Cumulative Food Intake ([4]; 0.01 μmol/kg single s.c., Time 20 h): 2.64 g
- Cumulative Food Intake ([4]; 0.01 μmol/kg single s.c., Time 21 h): 2.64 g
- Cumulative Food Intake ([4]; 0.01 μmol/kg single s.c., Time 22 h): 2.69 g
- Cumulative Food Intake ([4]; 0.01 μmol/kg single s.c., Time 23 h): 2.69 g
- Cumulative Food Intake ([4]; 0.01 μmol/kg single s.c., Time 24 h): 2.69 g
- Cumulative Food Intake ([4]; 0.03 μmol/kg single s.c., Time 1 h): 0.15 g
- Cumulative Food Intake ([4]; 0.03 μmol/kg single s.c., Time 2 h): 0.21 g
- Cumulative Food Intake ([4]; 0.03 μmol/kg single s.c., Time 3 h): 0.26 g
- Cumulative Food Intake ([4]; 0.03 μmol/kg single s.c., Time 4 h): 0.31 g
- Cumulative Food Intake ([4]; 0.03 μmol/kg single s.c., Time 5 h): 0.38 g
- Cumulative Food Intake ([4]; 0.03 μmol/kg single s.c., Time 6 h): 0.48 g
- Cumulative Food Intake ([4]; 0.03 μmol/kg single s.c., Time 7 h): 0.53 g
- Cumulative Food Intake ([4]; 0.03 μmol/kg single s.c., Time 8 h): 0.55 g
- Cumulative Food Intake ([4]; 0.03 μmol/kg single s.c., Time 9 h): 0.66 g
- Cumulative Food Intake ([4]; 0.03 μmol/kg single s.c., Time 10 h): 0.73 g
- Cumulative Food Intake ([4]; 0.03 μmol/kg single s.c., Time 11 h): 0.79 g
- Cumulative Food Intake ([4]; 0.03 μmol/kg single s.c., Time 12 h): 0.89 g
- Cumulative Food Intake ([4]; 0.03 μmol/kg single s.c., Time 13 h): 0.99 g
- Cumulative Food Intake ([4]; 0.03 μmol/kg single s.c., Time 14 h): 1.07 g
- Cumulative Food Intake ([4]; 0.03 μmol/kg single s.c., Time 15 h): 1.09 g
- Cumulative Food Intake ([4]; 0.03 μmol/kg single s.c., Time 16 h): 1.22 g
- Cumulative Food Intake ([4]; 0.03 μmol/kg single s.c., Time 17 h): 1.23 g
- Cumulative Food Intake ([4]; 0.03 μmol/kg single s.c., Time 18 h): 1.26 g
- Cumulative Food Intake ([4]; 0.03 μmol/kg single s.c., Time 19 h): 1.29 g
- Cumulative Food Intake ([4]; 0.03 μmol/kg single s.c., Time 20 h): 1.33 g
- Cumulative Food Intake ([4]; 0.03 μmol/kg single s.c., Time 21 h): 1.39 g
- Cumulative Food Intake ([4]; 0.03 μmol/kg single s.c., Time 22 h): 1.39 g
- Cumulative Food Intake ([4]; 0.03 μmol/kg single s.c., Time 23 h): 1.39 g
- Cumulative Food Intake ([4]; 0.03 μmol/kg single s.c., Time 24 h): 1.39 g
- Cumulative Food Intake ([4]; 0.1 μmol/kg single s.c., Time 1 h): 0.06 g
- Cumulative Food Intake ([4]; 0.1 μmol/kg single s.c., Time 2 h): 0.12 g
- Cumulative Food Intake ([4]; 0.1 μmol/kg single s.c., Time 3 h): 0.17 g
- Cumulative Food Intake ([4]; 0.1 μmol/kg single s.c., Time 4 h): 0.20 g
- Cumulative Food Intake ([4]; 0.1 μmol/kg single s.c., Time 5 h): 0.26 g
- Cumulative Food Intake ([4]; 0.1 μmol/kg single s.c., Time 6 h): 0.28 g
- Cumulative Food Intake ([4]; 0.1 μmol/kg single s.c., Time 7 h): 0.31 g
- Cumulative Food Intake ([4]; 0.1 μmol/kg single s.c., Time 8 h): 0.37 g
- Cumulative Food Intake ([4]; 0.1 μmol/kg single s.c., Time 9 h): 0.39 g
- Cumulative Food Intake ([4]; 0.1 μmol/kg single s.c., Time 10 h): 0.44 g
- Cumulative Food Intake ([4]; 0.1 μmol/kg single s.c., Time 11 h): 0.49 g
- Cumulative Food Intake ([4]; 0.1 μmol/kg single s.c., Time 12 h): 0.50 g
- Cumulative Food Intake ([4]; 0.1 μmol/kg single s.c., Time 13 h): 0.58 g
- Cumulative Food Intake ([4]; 0.1 μmol/kg single s.c., Time 14 h): 0.62 g
- Cumulative Food Intake ([4]; 0.1 μmol/kg single s.c., Time 15 h): 0.67 g
- Cumulative Food Intake ([4]; 0.1 μmol/kg single s.c., Time 16 h): 0.75 g
- Cumulative Food Intake ([4]; 0.1 μmol/kg single s.c., Time 17 h): 0.76 g
- Cumulative Food Intake ([4]; 0.1 μmol/kg single s.c., Time 18 h): 0.83 g
- Cumulative Food Intake ([4]; 0.1 μmol/kg single s.c., Time 19 h): 0.89 g
- Cumulative Food Intake ([4]; 0.1 μmol/kg single s.c., Time 20 h): 0.90 g
- Cumulative Food Intake ([4]; 0.1 μmol/kg single s.c., Time 21 h): 0.91 g
- Cumulative Food Intake ([4]; 0.1 μmol/kg single s.c., Time 22 h): 0.93 g
- Cumulative Food Intake ([4]; 0.1 μmol/kg single s.c., Time 23 h): 0.93 g
- Cumulative Food Intake ([4]; 0.1 μmol/kg single s.c., Time 24 h): 0.94 g
